The target in assay [1] is Melanocyte-stimulating hormone receptor (Rana pipiens). Kind of assay: Inhibition of 1 nM alpha melanocortin stimulating hormone (MSH) from frog skin.
Assay [2] deals with Melanocortin receptor 1 (Rana pipiens). In words: Effective concentration required for maximum agonist response at melanocortin 1 receptor from frog skin.

By IC50 is commonly meant the concentration needed to halve the response being measured. Low readings indicate inhibition by little substance, high ones a need for much substance. As a reminder, the EC50 is the concentration giving half of the maximal effect. The low end stands for higher potency in that assay, the high end for lower potency in that assay.

`C[C@@H](O)[C@H](NC(=O)[C@H]1NC(=O)[C@H]([C@@H](C)O)NC(=O)[C@H](CCCNC(=N)N)NC(=O)[C@@H](Cc2c[nH]c3ccccc23)NC(=O)[C@H](Cc2ccc(I)cc2)NC(=O)[C@@H](NC(=O)[C@H](N)Cc2ccccc2)CSSC1(C)C)C(N)=O` [1N-(1-carbamoyl-2-hydroxypropyl)-15-[3-amino(imino)methylaminopropyl]-6-(1-amino-2-phenylethylcarboxamido)-18-(1-hydroxyethyl)-12-(1H-3-indolylmethyl)-9-(4-iodobenzyl)-2,2-dimethyl-7,10,13,16,19-pentaoxo-3,4-dithia-8,11,14,17,20-pentaazacycloicosane] yielded an IC50 in assay [1] of 100 nM.

As for `C[C@@H](O)[C@H](NC(=O)[C@@H]1CSSC[C@H](NC(=O)[C@H](N)Cc2ccccc2)C(=O)N[C@@H](Cc2cnc[nH]2)C(=O)N[C@@H](Cc2ccc(F)cc2)C(=O)N[C@@H](CCCNC(=N)N)C(=O)N[C@H](Cc2c[nH]c3ccccc23)C(=O)N1)C(N)=O` [1N-(1-carbamoyl-2-hydroxypropyl)-15-[3-amino(imino)methylaminopropyl]-6-(1-amino-2-phenylethylcarboxamido)-12-(4-fluorobenzyl)-9-(1H-5-imidazolylmethyl)-18-(1H-3-indolylmethyl)-7,10,13,16,19-pentaoxo-3,4-dithia-8,11,14,17,20-pentaazacycloicosane-], the 50% effective concentration (EC50) in assay [2] is 1000 nM.

`C[C@@H](O)[C@H](NC(=O)[C@H]1CSSC[C@H](NC(=O)[C@@H](N)Cc2ccccc2)C(=O)N[C@@H](Cc2cnc[nH]2)C(=O)N[C@H](Cc2ccccc2)C(=O)N[C@@H](CCCNC(=N)N)C(=O)N[C@H](Cc2c[nH]c3ccccc23)C(=O)N1)C(N)=O` [1N-(1-carbamoyl-2-hydroxypropyl)-15-[3-amino(imino)methylaminopropyl]-6-(1-amino-2-phenylethylcarboxamido)-12-benzyl-9-(1H-5-imidazolylmethyl)-18-(1H-3-indolylmethyl)-7,10,13,16,19-pentaoxo-3,4-dithia-8,11,14,17,20-pentaazacycloicosane-1-carboxam] gave an EC50 in assay [2] of 3000 nM.

The compound `C[C@@H](O)[C@H](NC(=O)[C@H]1NC(=O)[C@H](CO)NC(=O)[C@H](CCCNC(=N)N)NC(=O)[C@@H](Cc2c[nH]c3ccccc23)NC(=O)[C@H](Cc2ccc(O)cc2)NC(=O)[C@@H](NC(=O)[C@H](N)Cc2ccccc2)CSSC1(C)C)C(N)=O` [1N-(1-carbamoyl-2-hydroxypropyl)-15-[3-amino(imino)methylaminopropyl]-6-(1-amino-2-phenylethylcarboxamido)-9-(4-hydroxybenzyl)-18-hydroxymethyl-12-(1H-3-indolylmethyl)-2,2-dimethyl-7,10,13,16,19-pentaoxo-3,4-dithia-8,11,14,17,20-pentaazacycloicosane] gave an IC50 in assay [1] of 1000 nM.

As to `C[C@@H](O)[C@H](NC(=O)[C@@H]1CSSC[C@H](NC(=O)[C@H](N)Cc2ccccc2)C(=O)N[C@@H](Cc2cnc[nH]2)C(=O)N[C@@H](Cc2cccc3ccccc23)C(=O)N[C@@H](CCCNC(=N)N)C(=O)N[C@H](Cc2c[nH]c3ccccc23)C(=O)N1)C(N)=O` [1N-(1-carbamoyl-2-hydroxypropyl)-15-[3-amino(imino)methylaminopropyl]-6-(1-amino-2-phenylethylcarboxamido)-9-(1H-5-imidazolylmethyl)-18-(1H-3-indolylmethyl)-12-(1-naphthylmethyl)-7,10,13,16,19-pentaoxo-3,4-dithia-8,11,14,17,20-pentaazacycloicosan], the response in assay [2] was half-maximal at 5000 nM (EC50).

In assay [1], `C[C@@H](O)[C@H](NC(=O)[C@H]1NC(=O)[C@H](Cc2c[nH]c3ccccc23)NC(=O)[C@H](CCCN=C(N)N)NC(=O)[C@@H](Cc2c[nH]c3ccccc23)NC(=O)[C@H](Cc2ccccc2)NC(=O)[C@@H](NC(=O)[C@H](N)Cc2ccccc2)CSSC1(C)C)C(N)=O` [1N-(1-carbamoyl-2-hydroxypropyl)-15-[3-amino(imino)methylaminopropyl]-6-(1-amino-2-phenylethylcarboxamido)-9-benzyl-12,18-di(1H-3-indolylmethyl)-2,2-dimethyl-7,10,13,16,19-pentaoxo-3,4-dithia-8,11,14,17,20-pentaazacycloicosane-1-carboxamide] showed an IC50 of 1000 nM.

For `C[C@@H](O)[C@H](NC(=O)[C@@H]1CCCCNC(=O)C[C@H](NC(=O)[C@H](N)Cc2ccccc2)C(=O)N[C@@H](Cc2cnc[nH]2)C(=O)N[C@H](Cc2ccccc2)C(=O)N[C@@H](CCCNC(=N)N)C(=O)N[C@@H](Cc2c[nH]c3ccccc23)C(=O)N1)C(N)=O` [1N-(1-carbamoyl-2-hydroxypropyl)-7-[3-amino(imino)methylaminopropyl]-16-(1-amino-2-phenylethylcarboxamido)-10-benzyl-13-(1H-5-imidazolylmethyl)-4-(1H-3-indolylmethyl)-3,6,9,12,15,18-hexaoxo-2,5,8,11,14,19-hexaazacyclotricosane-1-carboxamide], the half-maximal effective concentration (EC50) in assay [2] stood at 0.1 nM.

In assay [2], `C[C@@H](O)[C@H](NC(=O)[C@H]1CSSC[C@H](NC(=O)[C@H](N)Cc2ccccc2)C(=O)N[C@@H](Cc2cnc[nH]2)C(=O)N[C@@H](Cc2ccccc2)C(=O)N[C@@H](CCCNC(=N)N)C(=O)N[C@H](Cc2c[nH]c3ccccc23)C(=O)N1)C(N)=O` [1N-(1-carbamoyl-2-hydroxypropyl)-15-[3-amino(imino)methylaminopropyl]-6-(1-amino-2-phenylethylcarboxamido)-12-benzyl-9-(1H-5-imidazolylmethyl)-18-(1H-3-indolylmethyl)-7,10,13,16,19-pentaoxo-3,4-dithia-8,11,14,17,20-pentaazacycloicosane-1-carboxam] yielded an EC50 of 10 nM.

On to `C[C@@H](O)[C@H](NC(=O)[C@@H]1CSSCC[C@H](NC(=O)[C@H](N)Cc2ccccc2)C(=O)N[C@@H](Cc2cnc[nH]2)C(=O)N[C@H](Cc2ccccc2)C(=O)N[C@@H](CCCNC(=N)N)C(=O)N[C@@H](Cc2c[nH]c3ccccc23)C(=O)N1)C(N)=O` [H-D-Phe-c[Hcy-His-D-Phe-Arg-Trp-Cys]-Thr-NH2], for which, in assay [2], the response was half-maximal at 0.3 nM (EC50).

Regarding `C[C@H](O)[C@@H](NC(=O)[C@H]1CSSC[C@H](NC(=O)[C@H](N)Cc2ccccc2)C(=O)N[C@@H](Cc2cnc[nH]2)C(=O)N[C@@H](Cc2ccc(Cl)cc2)C(=O)N[C@@H](CCCNC(=N)N)C(=O)N[C@H](Cc2c[nH]c3ccccc23)C(=O)N1)C(N)=O` [1N-(1-carbamoyl-2-hydroxypropyl)-15-[3-amino(imino)methylaminopropyl]-6-(1-amino-2-phenylethylcarboxamido)-12-(4-chlorobenzyl)-9-(1H-5-imidazolylmethyl)-18-(1H-3-indolylmethyl)-7,10,13,16,19-pentaoxo-3,4-dithia-8,11,14,17,20-pentaazacycloicosane-], the EC50 in assay [2] worked out at 30 nM.

In assay [1], `C[C@H](O)[C@@H](NC(=O)[C@H]1CSSC[C@H](NC(=O)[C@@H](N)Cc2ccccc2)C(=O)N[C@@H](Cc2c[nH]cn2)C(=O)N2Cc3ccccc3C[C@H]2C(=O)N[C@@H](CCCN=C(N)N)C(=O)N[C@H](Cc2c[nH]c3ccccc23)C(=O)N1)C(N)=O` [(2R,3S)-2-{[(3S,6R,9S,14R,17S)-14-[(2S)-2-amino-3-phenylpropanamido]-3-{3-[(diaminomethylidene)amino]propyl}-17-(1H-imidazol-4-ylmethyl)-6-(1H-indol-3-ylmethyl)-1,4,7,15,18-pentaoxo-1H,2H,3H,4H,5H,6H,7H,8H,9H,10H,13H,14H,15H,16H,17H,18H,20H,25H,25aH-isoquinolino[3,2-m]1,2-dithia-5,8,11,14,17-pentaazacycloicosan-9-yl]formamido}-3-hydroxybutanamide] registered an IC50 of 1000 nM.

`C[C@@H](O)[C@H](NC(=O)[C@H]1NC(=O)[C@H](Cc2c[nH]c3ccccc23)NC(=O)[C@H](CCCN=C(N)N)NC(=O)[C@@H](Cc2c[nH]c3ccccc23)NC(=O)[C@H](Cc2ccc(O)cc2)NC(=O)[C@@H](NC(=O)[C@H](N)Cc2ccccc2)CSSC1(C)C)C(N)=O` [1N-(1-carbamoyl-2-hydroxypropyl)-15-[3-amino(imino)methylaminopropyl]-6-(1-amino-2-phenylethylcarboxamido)-9-(4-hydroxybenzyl)-12,18-di(1H-3-indolylmethyl)-2,2-dimethyl-7,10,13,16,19-pentaoxo-3,4-dithia-8,11,14,17,20-pentaazacycloicosane-1-carboxami] displayed an IC50 in assay [1] of 1000 nM.

In assay [2], `C[C@@H](O)[C@H](NC(=O)[C@H]1NC(=O)[C@H](Cc2c[nH]c3ccccc23)NC(=O)[C@H](CCCNC(=N)N)NC(=O)[C@@H](Cc2ccccc2)NC(=O)[C@H](Cc2cnc[nH]2)NC(=O)[C@@H](NC(=O)[C@H](N)Cc2ccccc2)CSSC1(C)C)C(N)=O` [H-D-Phe-c[Cys-His-D-Phe-Arg-Trp-Pen]-Thr-NH2] registered an EC50 of 100 nM.

`C[C@@H](O)[C@H](NC(=O)[C@@H]1CCSSC[C@H](NC(=O)[C@H](N)Cc2ccccc2)C(=O)N[C@@H](Cc2cnc[nH]2)C(=O)N[C@H](Cc2ccccc2)C(=O)N[C@@H](CCCNC(=N)N)C(=O)N[C@@H](Cc2c[nH]c3ccccc23)C(=O)N1)C(N)=O` [1N-(1-carbamoyl-2-hydroxypropyl)-16-[3-amino(imino)methylaminopropyl]-7-(1-amino-2-phenylethylcarboxamido)-13-benzyl-10-(1H-5-imidazolylmethyl)-19-(1H-3-indolylmethyl)-8,11,14,17,20-pentaoxo-4,5-dithia-9,12,15,18,21-pentaazacyclohenicosane-1-carb]: the concentration giving a half-maximal response (EC50) in assay [2] was found to be 1000 nM.

Values taken from BindingDB's records for doi:10.1021/jm030452x (University of Arizona, 2004).
